Measurements taken from ChEMBL document CHEMBL4177637, “Proapoptotic modification of substituted isoindolinones as MDM2-p53 inhibitors” (2017).
Calls of active or inactive are those of the source. The rule behind the calls is not given here.

What was measured:
HCT-116 [1] = assay: Growth inhibition of human HCT116 cells harboring p53+/+ after 48 hrs by Hoechst 33258 staining based fluorescence assay; format: functional; details: HCT-116, 48 h
HCT-116 [2] = assay: Growth inhibition of human p53 knockdown HCT116 cells after 48 hrs by Hoechst 33258 staining based fluorescence assay; format: functional; details: HCT-116, 48 h
U2OS = assay: Induction of apoptosis in human U2OS cells at 10 uM after 24 hrs by Annexin V-FITC/propidium iodide based FACS analysis (Rvb= 0.1%); format: functional
[3] = target: Tumour suppressor p53/oncoprotein Mdm2 (Homo sapiens) (UniProt P04637+Q00987); assay: Inhibition of MDM2/p53 in human HCT116 cells at 10 uM after 24 hrs by Western blot method; format: cell-based
HCT-116 [4] = assay: Selectivity ratio of GI50 for human p53 knockdown HCT116 cells to GI50 for human HCT116 cells harboring p53+/+; format: functional

Sequence of Tumour suppressor p53/oncoprotein Mdm2 (Homo sapiens) (P04637 whole entry, looked up): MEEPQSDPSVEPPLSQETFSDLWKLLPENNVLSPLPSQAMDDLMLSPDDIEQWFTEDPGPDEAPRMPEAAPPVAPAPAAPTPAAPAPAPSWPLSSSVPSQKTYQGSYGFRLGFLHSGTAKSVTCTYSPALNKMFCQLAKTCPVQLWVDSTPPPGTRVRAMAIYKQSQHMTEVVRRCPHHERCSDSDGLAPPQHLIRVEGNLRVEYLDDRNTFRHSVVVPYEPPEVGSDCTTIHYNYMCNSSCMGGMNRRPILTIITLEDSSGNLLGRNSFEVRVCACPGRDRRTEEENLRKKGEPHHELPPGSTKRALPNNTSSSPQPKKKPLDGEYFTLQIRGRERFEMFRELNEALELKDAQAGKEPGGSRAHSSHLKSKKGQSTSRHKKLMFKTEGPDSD
Sequence of Tumour suppressor p53/oncoprotein Mdm2 (Homo sapiens) (Q00987 whole entry, looked up): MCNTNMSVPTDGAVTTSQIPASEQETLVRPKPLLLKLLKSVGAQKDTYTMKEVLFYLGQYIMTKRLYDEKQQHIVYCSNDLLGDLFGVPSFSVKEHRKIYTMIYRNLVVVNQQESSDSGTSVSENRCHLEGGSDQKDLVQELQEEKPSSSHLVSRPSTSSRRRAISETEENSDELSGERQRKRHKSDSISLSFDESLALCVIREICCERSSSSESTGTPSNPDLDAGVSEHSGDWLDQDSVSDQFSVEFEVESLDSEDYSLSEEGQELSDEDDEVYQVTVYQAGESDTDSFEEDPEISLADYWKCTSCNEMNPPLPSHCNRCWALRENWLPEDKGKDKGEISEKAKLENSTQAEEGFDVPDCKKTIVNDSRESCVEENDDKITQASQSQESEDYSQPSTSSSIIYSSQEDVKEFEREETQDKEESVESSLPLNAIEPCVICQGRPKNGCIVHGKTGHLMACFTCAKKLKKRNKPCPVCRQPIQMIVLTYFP

| GI50 (HCT-116 [1]) [µM] | GI50 (HCT-116 [2]) [µM] | inhibition [3] | Compound | Activity (U2OS) [%] | RatioGI50 (HCT-116 [4]) |
| --- | --- | --- | --- | --- | --- |
| 11 | 40 | – | CC(C)[C@H](N)C(=O)OCC(C)(C)COC1(c2ccc(Cl)cc2)c2ccccc2C(=O)N1Cc1ccc(Cl)cc1 (stereo not given in full) | – | – |
| 12 | 45 | – | N[C@H](C(=O)OCCCOC1(c2ccc(Cl)cc2)c2ccccc2C(=O)N1Cc1ccc(Cl)cc1)c1ccccc1 (stereo not given in full) | – | – |
| 50 | 80 | – | CC(=O)OCCCOC1(c2ccc(Cl)cc2)c2ccccc2C(=O)N1Cc1ccccc1 (stereo not given) | – | – |
| 8 | 27 | – | COc1ccc(C2=N[C@@H](c3ccc(Cl)cc3)[C@@H](c3ccc(Cl)cc3)N2C(=O)N2CCNC(=O)C2)c(OC(C)C)c1 [NUTLIN-3] | 31 | – |
| 35 | 70 | – | CC(=O)OCC(C)(C)COC1(c2ccc(Cl)cc2)c2ccccc2C(=O)N1Cc1ccc(Cl)cc1 (stereo not given) | – | – |
| 38 | 70 | – | CC(=O)OCC(C)(C)COC1(c2ccc(Cl)cc2)c2ccccc2C(=O)N1Cc1ccccc1 (stereo not given) | – | – |
| 15 | 44 | – | CC(C)(COC(=O)[C@@H](N)c1ccccc1)COC1(c2ccc(Cl)cc2)c2ccccc2C(=O)N1Cc1ccccc1 (stereo not given in full) | – | – |
| 46 | 68 | – | CC(=O)OCCCOC1(c2ccc(Cl)cc2)c2ccccc2C(=O)N1Cc1ccc(Cl)cc1 (stereo not given) | – | – |
| 60 | 68 | – | O=C1c2ccccc2C(OCCCO)(c2ccc(Cl)cc2)N1Cc1ccc(Cl)cc1 (stereo not given) | – | – |
| 71 | 82 | – | CC(C)(CO)COC1(c2ccc(Cl)cc2)c2ccccc2C(=O)N1Cc1ccccc1 (stereo not given) | – | – |
| 20 | 65 | – | CC(C)[C@H](N)C(=O)OCC(C)(C)COC1(c2ccc(Cl)cc2)c2ccccc2C(=O)N1Cc1ccccc1 (stereo not given in full) | – | – |
| 16 | 60 | – | CC(C)[C@H](N)C(=O)OCCCOC1(c2ccc(Cl)cc2)c2ccccc2C(=O)N1Cc1ccc(Cl)cc1 (stereo not given in full) | – | – |
| 8 | 38 | Active | CC(C)(COC(=O)[C@@H](N)c1ccccc1)COC1(c2ccc(Cl)cc2)c2ccccc2C(=O)N1Cc1ccc(Cl)cc1 (stereo not given in full) | 33.1 | <=4.75 |
| 20 | 65 | – | CC(C)[C@H](N)C(=O)OCCCOC1(c2ccc(Cl)cc2)c2ccccc2C(=O)N1Cc1ccccc1 (stereo not given in full) | – | – |
| 79 | 90 | – | O=C1c2ccccc2C(OCCCO)(c2ccc(Cl)cc2)N1Cc1ccccc1 (stereo not given) | – | – |
| 50 | 65 | Active | CC(C)(CO)COC1(c2ccc(Cl)cc2)c2ccccc2C(=O)N1Cc1ccc(Cl)cc1 (stereo not given) | 2 | – |
| 14 | 43 | – | N[C@H](C(=O)OCCCOC1(c2ccc(Cl)cc2)c2ccccc2C(=O)N1Cc1ccccc1)c1ccccc1 (stereo not given in full) | – | – |
